# Results published in EP3184514A1, “AUTOPHAGY INHIBITORS” (Deutsches Krebsforschungszentrum, priority 2015, dated 2017).
# Columns and labels:
# PANC1, HCT116, A549 = test: LC3B and p62 spots in autophagy-dependent cancer cell lines; assay type: cell-based; conditions: 1 hr, 100 µM; all three cell lines
# Procedure: For screening purposes, cells were seeded in 384 well plates and left over night for attachment. […] For controls, cells were treated with 250 nM torin and/or 100 nM BafA1 for 2 hours.
# Afterwards, medium was removed and 4 % (w/v) paraformaldehyde (PFA) in PBS buffer was added to the cells for 20 minutes, incubated at room temperature. Cells were permeabilized with 0.1 % (v/v) Triton X-100 for 10 min at room temperature and washed with PBS. Cells were blocked with 3 % (w/v) bovine serum albumin (BSA) in PBS for 45 minutes at 37 °C and then incubated with anti-LC3B (PM036, MBL) or anti-p62 (PM045 or M162-3, MBL) primary antibody diluted in 0.3 % BSA (1:2000 or 1:500) for 1.5-2 hours at 37 °C. Cells were washed three times with PBS. Secondary Alexa Fluor 488 - labeled antibodies (A-11008, Invitrogen) were diluted in 0.3 % BSA (1:2500) and incubated on cells for 15 minutes at 37 °C. Cells were washed once with PBS, incubated with DRAQ5 (#4084, Cell Signaling) diluted in PBS (1:5000) for 10 minutes and washed three times with PBS.
# 384 well plates were then analyzed with an automated confocal microscope Opera (PerkinElmer) enabling high throughput high content screening image analysis. Confocal images were taken at the Institute of Biochemistry II, Goethe University Medical School, Theodor-Stern-Kai 7, 60590 Frankfurt am Main, Germany. […] Signal was detected with a fast gated CCD camera. […]
# HCT116 = test: MTT cell viability assay; assay type: cell-based; conditions: 72 and 96 hours
# Procedure: (§1) The MTT assay is a colorimetric assay for assessing cell viability. NAD(P)H-dependent cellular oxidoreductase enzymes in metabolic active cells reduce the tetrazolium dye MTT 3-(4,5-dimethylthiazol-2-yl)-2,5-diphenyltetrazolium bromide to its insoluble purple formazan. All cell types were seeded in 96 well plates and left over night for attachment. Next day, cells were treated with 100 µM compound I-1 for 24, 48, 72, and 96 hours. For controls, 1 µM staurosporine and 100 nM BafA1 were used. The assay was performed according to manufacturer's instructions and the absorbance of the formazan product was measured at 595 nm.
# A549 = test: MTT cell viability assay; assay type: cell-based
# Procedure: as §1
# PANC1 = test: MTT cell viability assay; assay type: cell-based; conditions: 72 and 96 hours
# Procedure: as §1
# LC3B [1] = target: T1, LC3B (Homo sapiens, UniProt Q9GZQ8); test: AlphaScreen interaction displacement assay (GST-LC3B / biotin-LIRtide); assay type: binding; conditions: Table 1-a; n.e. means no effect; read-out: LC3B inhibition cell free IC50
# T1 construct: made in house; host or cells: E. coli Rosetta (DE3)
# Procedure: The AlphaScreen assay contained 50 mM Tris (pH 7.5), 100 mM NaCl, 0.01% Tween 20, 2 mM DTT, 1 % DMSO and 2-30 nM GST-LC3B and biotin-LIRtide 2-30 nM. The concentrations of GST-LC3B and biotin-LIRtide were experimentally chosen from a cross-titration assay exploring the different combinations of for each batch of protein used and when a new batch of buffer was prepared.
# A gene encoding for human LC3B protein inserted in a pET-GST expression vector was used as a template. Rosetta (DE3) competent cells were transformed by started procedure, plated on an LB agar plate with ampicillin (100 µg/ml) and left overnight at 37 °C. Overnight culture was prepared from a single colony and shaken at 180 rpm at 37 °C. LB medium with ampicillin was inoculated with overnight culture (10 ml per 500 ml of LB) and shaken until the optical density at 600 nm (OD600) reached a value of approximately 0.6. Protein expression was then induced with 400 µM IPTG and further incubated for 4 hours. Bacterial culture was centrifuged for 20 minutes at 6000 rpm at 4 °C. The pellet was then resuspended in lysis buffer (20 mM TRIS-HCl pH 7.5, 10 mM EDTA, 5 mM EGTA, 150 mM NaCl, 0.5 % NP40, 1 % Triton X-100, 1 mM DTT, 2 mg/ml lysozyme, 0.05 U/µl benzonase, 1x protease inhibitor cocktail). Lysate was then stored at -20 °C over night. Sample was thawed in water bath and sonicated on ice (40 % amplitude, 30 seconds pulse/30 seconds pause cycle). Lysate was centrifuged at 10000xg at 4 °C for half an hour. Meanwhile, 500 µl of glutathione sepharose beads was equilibrated with lysis buffer and then added to the supernatant. The mixture was incubated and rotated at room temperature for 2 hours. After binding of the protein to the beads, beads were spun down at 500xg at 4 °C for 5 minutes. Pellet was then washed with cold wash buffer at least four times (20 mM Tris-HCl pH 7.5, 10 mM EDTA, 5 mM EGTA, 150 mM NaCl, 1 mM DTT), dried and stored in 5 % glycerol at 4 °C.
# LC3B [2] = test: NMR titration (1H-15N HSQC, chemical shift perturbations); assay type: binding; conditions: 10 fold excess of compound, before prolonged incubation
smiles,measurement,setting,value
"Brc1ccc(CSC2=NCN(Cc3cccnc3)CN2)cc1 [Compound I-1, 6-((4-bromobenzyl)thio)-3-(pyridin-3-ylmethyl)-1,2,3,4-tetrahydro-1,3,5-triazine]",number of LC3B and p62 spots,"PANC1, HCT116, A549",increased
same,cell survival,HCT116,almost no cell survival
same,reduced cell viability,A549; 72 and 96 hours,approximately 50%
same,cell viability,A549; 48 hours,unaffected
same,reduced cell viability,PANC1,approximately 50%
same,IC50,LC3B [1],6 µM
same,chemical shift perturbations (CSP) of LC3B,LC3B [2],does not induce any significant CSPs
